Key:
[1] = target: BChE (Homo sapiens, UniProt P06276); type: biochemical; conditions: samples 3 mM/dm^3 in DMSO, 0.035 mL; mean ± SEM, n = 3
[2] = target: AChE (Homo sapiens, UniProt P22303); assay: Effect on AChE activity (modified Ellman's method); type: biochemical; conditions: samples 3 mM/dm^3 in DMSO, 0.035 mL; mean ± SEM, n = 3
Text: Neurodegenerative diseases are associated with the progressive damage of neurons. During the development of these diseases, there is a loss of nerve cells and a deficiency of […], serotonin, and norepinephrine levels. The ability to inhibit acetyl- (AChE) and butyrylcholinesterase (BChE) activities is seen, among others, in organophosphorus compounds, carbamate insecticides, phenoxyacetic pesticides, and hydrogen peroxide, as well as aliphatic ketones with the carbons C4–C9, e.g., 2,5-hexandione. AChE and BChE show differences in their susceptibility to inhibitors, behaviour in situations involving excess substrate, or substrate binding specificity. Unlike, other esterases, both enzymes hydrolyse choline esters at very high speeds. Thus, in our work, the modified Elman’s method was used to investigate the anti-AChE and anti-BChE effects of curcuminoid chalcone.
(§1) The samples were dissolved in DMSO (Sigma D4540) to obtain a concentration of 3 mM/dm^3.
The analysis was performed strictly as described by Studzińska-Sroka et al., except that the volume of the tested samples added to the reaction mixture was 0.035 mL.

[3] = test system: glutathione peroxidase (GPx); assay: Effect on GPx activity; type: biochemical; conditions: samples 3 mM/dm^3 in DMSO; mean ± SEM, n = 3
Experimental: (§2) We decided to extend the study by measuring the compounds’ ability to inhibit glutathione reductase (GR) and GPx activities, the human cells’ main endogenous enzymatic defence systems. Therefore, we checked the influence of some curcuminoid chalcones on GR and GPx using in vitro spectroscopic methods (Table 2). Moreover, the effects of curcuminoid chalcones on CAT activity were estimated (Table 2).
as §1
(§3) The analyses were performed strictly as described by Studzińska-Sroka et al..

[4] = target: T1, catalase (CAT) (Aspergillus niger, UniProt P55303); assay: Effect on CAT activity; type: biochemical; conditions: samples 3 mM/dm^3 in DMSO, 0.01 mL; mean ± SEM, n = 3
T1 construct: purchased Sigma C3515
T1 sequence (P55303 whole entry): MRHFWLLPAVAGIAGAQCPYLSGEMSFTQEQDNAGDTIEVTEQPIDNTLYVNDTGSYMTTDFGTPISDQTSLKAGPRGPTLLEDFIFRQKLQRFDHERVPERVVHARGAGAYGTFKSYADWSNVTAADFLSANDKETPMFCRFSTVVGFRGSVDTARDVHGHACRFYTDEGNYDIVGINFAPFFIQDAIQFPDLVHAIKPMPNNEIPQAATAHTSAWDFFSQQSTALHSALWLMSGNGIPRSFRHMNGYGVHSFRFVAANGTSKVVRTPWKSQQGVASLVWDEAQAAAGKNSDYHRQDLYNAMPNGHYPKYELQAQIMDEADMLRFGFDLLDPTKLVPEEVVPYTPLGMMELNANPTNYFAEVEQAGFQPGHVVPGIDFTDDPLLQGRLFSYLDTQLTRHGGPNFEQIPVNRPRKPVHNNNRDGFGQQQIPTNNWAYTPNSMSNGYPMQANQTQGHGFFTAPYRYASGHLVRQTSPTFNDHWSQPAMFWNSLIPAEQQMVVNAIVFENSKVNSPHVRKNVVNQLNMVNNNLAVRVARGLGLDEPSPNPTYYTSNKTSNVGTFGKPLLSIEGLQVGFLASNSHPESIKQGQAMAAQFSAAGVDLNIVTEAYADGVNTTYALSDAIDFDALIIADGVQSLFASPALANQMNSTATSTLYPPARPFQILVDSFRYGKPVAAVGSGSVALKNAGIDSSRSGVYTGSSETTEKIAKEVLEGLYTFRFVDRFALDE
Experimental: as §1
The method used by Watanabe et al. was used with the following modifications. The reaction mixture was composed of 0.02 mL of EDTA solution (56.5 mM), 0.01 mL of ^the sample, 0.02 mL of 3% H2O2 solution (Sigma H1009), and 0.02 mL of catalase solution (4000-fold diluted, Sigma C3515) (all reagents except the tested sample were diluted in TRIS buffer, pH 7.0, 1 mol/dm^3). The volume was completed to 0.31 mL by the same buffer solution. In a blank sample, DMSO (Sigma D4540) replaced the tested sample. The background of the sample was measured in a mixture composed of 0.01 mL of the sample completed to 0.31 mL by the buffer. The absorbance was read at 240 nm directly after the mixing and after 5 min of incubation (room temperature). The decreased absorbance (depletion of H2O2) in the tested and blank samples was compared. The calibration curve was produced using eleven H2O2 solutions (0.5693–5.693 mM/dm^3). The results are expressed in % inhibition and as H2O2 depletion (mmol of depleted H2O2/dm^3 min).

[5] = target: T2, glutathione reductase (GR) (Homo sapiens, UniProt P00390); assay: Effect on GR activity; type: biochemical; conditions: samples 3 mM/dm^3 in DMSO; mean ± SEM, n = 3
T2 sequence (P00390 44-522): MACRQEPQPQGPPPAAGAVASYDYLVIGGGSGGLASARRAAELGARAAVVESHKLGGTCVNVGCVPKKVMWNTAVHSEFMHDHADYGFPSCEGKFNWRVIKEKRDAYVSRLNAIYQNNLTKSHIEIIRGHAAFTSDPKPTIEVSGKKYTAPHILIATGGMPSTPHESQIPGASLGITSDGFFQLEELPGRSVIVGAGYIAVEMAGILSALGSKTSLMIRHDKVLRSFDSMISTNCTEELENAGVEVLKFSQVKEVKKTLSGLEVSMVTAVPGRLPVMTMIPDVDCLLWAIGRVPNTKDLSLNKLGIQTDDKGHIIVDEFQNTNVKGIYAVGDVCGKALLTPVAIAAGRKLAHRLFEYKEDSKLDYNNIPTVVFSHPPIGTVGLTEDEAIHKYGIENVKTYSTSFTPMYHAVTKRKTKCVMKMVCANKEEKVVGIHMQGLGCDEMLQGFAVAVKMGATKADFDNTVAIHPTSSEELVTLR
Experimental: as §2, §1, §3

[6] = target: T3, COX-2 (Homo sapiens, UniProt P35354); assay: Effect on COX-2 activity; type: biochemical; conditions: samples 3 mM/dm^3 in DMSO, 0.02 mL; mean ± SEM, n = 3
T3 sequence (P35354 18-604): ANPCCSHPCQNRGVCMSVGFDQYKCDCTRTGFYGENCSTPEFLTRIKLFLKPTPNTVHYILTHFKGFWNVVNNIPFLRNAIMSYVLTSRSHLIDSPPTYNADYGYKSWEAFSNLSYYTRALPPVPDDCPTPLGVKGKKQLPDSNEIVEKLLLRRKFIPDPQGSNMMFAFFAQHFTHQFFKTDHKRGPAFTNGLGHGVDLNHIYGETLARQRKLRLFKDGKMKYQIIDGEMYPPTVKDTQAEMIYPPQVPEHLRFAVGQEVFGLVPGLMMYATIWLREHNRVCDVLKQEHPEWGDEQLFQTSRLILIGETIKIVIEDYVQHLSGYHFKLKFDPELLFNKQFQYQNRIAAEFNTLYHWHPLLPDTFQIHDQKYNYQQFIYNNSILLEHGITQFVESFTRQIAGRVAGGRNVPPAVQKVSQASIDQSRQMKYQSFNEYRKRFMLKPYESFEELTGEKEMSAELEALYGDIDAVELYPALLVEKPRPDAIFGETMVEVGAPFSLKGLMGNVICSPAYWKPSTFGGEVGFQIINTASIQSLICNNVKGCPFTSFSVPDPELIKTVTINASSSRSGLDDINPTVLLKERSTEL

[7] = test system: FaDu cells; assay: Sonodynamic cytotoxicity, MTT test; type: cell-based, human; conditions: 40 µM, 8 h, then US 3 min, 3 MHz, 0.8 W/cm^2; MTT 6 h later; compared to untreated cells
Experimental: The cytotoxic effect and sonosensitising properties of selected synthesised chalcone derivatives were evaluated on human SCC-25 tongue and FaDu throat cancer cell lines using the MTT test (Figure 5 and Figure 6).
SCC-25 and FaDu human squamous cell carcinoma cell lines were purchased from the American Type Culture Collection (ATCC). The cells were cultivated in an incubator under optimal culture conditions (temperature: 37 °C; humidity: 95%; carbon dioxide content: 5%). The SCC-25 cell line was cultured in phenol red-free DMEM:F-12 medium complemented with 10% FBS, 2.5 mM L-glutamine, penicillin (100 U/mL), and streptomycin (0.1 mg/mL). The FaDu cells were maintained in phenol red-free Eagle’s Minimum Essential Medium (EMEM) supplemented with 10% fetal bovine serum (FBS), 2.5 mM L-glutamine, penicillin (100 U/mL), and streptomycin (0.1 mg/mL). For the experiments, confluent stock cultures were harvested using the trypsin–EDTA solution and seeded in 35-mm-diameter Petri plates at a density of 1 × 10^6. They were allowed to attach overnight, and the tested compounds were then added at a concentration of 40 µM. Control cells were maintained under the same conditions with 0.1% DMSO. […] The absorbance was measured using an Elx-800 plate reader (BioTek, Bad Friedrichshall, Germany) at 570 nm (reference wavelength 650 nm).

[8] = Hydroxyl radical antioxidant capacity (HORAC); conditions: samples 1 mg/mL DMSO; mean ± SEM, n = 3
[9] = test system: SCC-25 cells; assay: Sonodynamic cytotoxicity, MTT test; type: cell-based, human; conditions: 40 µM; for Reduction of viability of SCC-25 cells, compound combined with US: 8 h, then US 3 min, 3 MHz, 0.8 W/cm^2, MTT 6 h later, compared to untreated cells
[10] = temperatures below 30 °C ref 43; cited from earlier work

Sequence of AChE (P22303 32-614): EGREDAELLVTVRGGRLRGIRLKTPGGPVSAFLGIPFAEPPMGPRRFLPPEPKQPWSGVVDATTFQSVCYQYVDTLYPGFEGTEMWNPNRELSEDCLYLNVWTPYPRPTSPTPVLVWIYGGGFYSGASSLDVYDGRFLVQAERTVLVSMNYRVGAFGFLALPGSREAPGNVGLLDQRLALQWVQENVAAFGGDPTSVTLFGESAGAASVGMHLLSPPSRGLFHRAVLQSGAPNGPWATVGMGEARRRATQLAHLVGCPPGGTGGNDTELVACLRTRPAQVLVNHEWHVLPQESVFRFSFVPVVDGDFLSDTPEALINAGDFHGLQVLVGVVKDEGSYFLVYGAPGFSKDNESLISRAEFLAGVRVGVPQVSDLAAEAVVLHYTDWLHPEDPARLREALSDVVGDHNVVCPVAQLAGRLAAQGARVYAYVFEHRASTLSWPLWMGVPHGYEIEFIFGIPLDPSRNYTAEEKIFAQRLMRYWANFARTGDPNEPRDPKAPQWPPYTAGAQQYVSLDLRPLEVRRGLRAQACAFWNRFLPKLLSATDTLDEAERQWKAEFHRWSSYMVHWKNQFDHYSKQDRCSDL
Sequence of BChE (P06276 29-602, species assumed): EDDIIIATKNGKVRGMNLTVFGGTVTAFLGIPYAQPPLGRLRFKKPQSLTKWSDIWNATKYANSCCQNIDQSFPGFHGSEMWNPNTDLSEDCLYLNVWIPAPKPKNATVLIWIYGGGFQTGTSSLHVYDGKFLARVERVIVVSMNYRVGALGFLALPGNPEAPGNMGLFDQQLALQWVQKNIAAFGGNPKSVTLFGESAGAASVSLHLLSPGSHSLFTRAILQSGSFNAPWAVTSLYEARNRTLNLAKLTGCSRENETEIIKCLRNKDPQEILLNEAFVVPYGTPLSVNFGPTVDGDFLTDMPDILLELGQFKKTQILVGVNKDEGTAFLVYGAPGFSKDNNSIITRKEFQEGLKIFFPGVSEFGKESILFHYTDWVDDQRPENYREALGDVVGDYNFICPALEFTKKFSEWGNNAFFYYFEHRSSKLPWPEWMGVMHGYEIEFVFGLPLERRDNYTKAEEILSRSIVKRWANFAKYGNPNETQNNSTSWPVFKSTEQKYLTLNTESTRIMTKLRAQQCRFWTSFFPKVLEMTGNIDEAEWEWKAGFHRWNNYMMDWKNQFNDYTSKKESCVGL

Structure (SMILES) | BChE % (inhibition) [1] [%] | BChE, Equivalent Concentration of Reference Compound Magniflorine [1] [µg/mL] | BChE, Equivalent Concentration of Reference Compound Rivastigmine [1] [µg/mL] | AChE % (inhibition) [2] [%] | AChE, Equivalent Concentration of Reference Compound Magniflorine [2] [µg/mL] | AChE, Equivalent Concentration of Reference Compound Rivastigmine [2] [µg/mL] | GPx Inhibition (%) [3] | GPx activity (NADPH consumption rate) [3] [nmol Depleted NADPH/min] | CAT Inhibition (%) [4] [%] | CAT Inhibition of the H2O2 Depletion [4] [mm/dm^3/min] | GR Inhibition (%) [5] [%] | GR activity (NADPH consumption rate) [5] [nmol Depleted NADPH/min] | Equivalent Concentration of Acetylsalicylic Acid (COX-2) [6] [mg/mL] | Inhibition of viability of FaDu cells, compound combined with US [7] | HORAC, Gallic Acid Equivalents [8] [µg/mL] | Reduction of viability of SCC-25 cells, compound combined with US [9] | Reduction of viability of SCC-25 cells, compound alone ([9]; MTT, compared to control) | pH of greatest stability of water solutions [10] | COX-2 Inhibition (%) [6]
COc1cc(/C=C/C(=O)c2ccccc2)ccc1O [Compound 1, 3-(4-hydroxy-3-methoxyphenyl)-1-phenylprop-2-en-1-one] | 78.0 ± 4.6 | 0.30 ± 0.02 | 0.23 ± 0.01 | 80.5 ± 8.2 | 0.31 ± 0.03 | 0.46 ± 0.05 | 30.3 ± 3.6% | 60.3 ± 7.1 | 78.6 ± 2.8 | 0.26 ± 0.01 | 7.6 ± 2.4 | 286 ± 90 | 6.1 ± 0.1 | significantly reduced viability | 18.7 ± 3.8 | ~ 40% | no significant difference |  | 
CC(C)Cc1ccc(C(C)C(=O)O)cc1 (centres unmarked) [Compound 4, ibuprofen, reference compound] |  |  |  |  |  |  |  |  |  |  | 19.9 ± 1.1 | 747 ± 41 |  | no significant difference | 35.7 ± 4.2 | no significant difference |  | 5–7 | 
O=C(/C=C/c1ccccc1)c1ccccc1 [Compound 5] | 58.1 ± 3.4 | 0.23 ± 0.01 | 0.17 ± 0.01 | 65.7 ± 4.7 | 0.25 ± 0.02 | 0.37 ± 0.03 | did not inhibit and - |  | 12.5 ±2.4 | 0.03 ± 0.01 | 29.1 ± 4.4 | 1093 ± 165 |  |  | 6.1 ± 2.5 |  |  |  | -
COc1ccc(/C=C/C(=O)c2ccccc2)cc1O [Compound 7, E-3-(3-hydroxy-4-methoxyphenyl)-1-phenylprop-2-en-1-one] | 94.4 ± 4.1 | 0.37 ± 0.02 | 0.27 ± 0.01 | 89.8 ± 5.8 | 0.34 ± 0.01 | 0.51 ± 0.03 | 32.4 ± 2.8% | 64.4 ± 5.5 | 88.1 ± 4.0 | 0.22 ± 0.01 | 41.8 ± 3.1 | 1570 ± 116 | 7.7 ± 0.1 |  | 11.5 ± 1.3 |  |  |  | 
